Assay results: US4110626A, “Method for improving the quality of the fragrance of perfumes using aliphatic dibasic acid diesters” (Shiseido Co., Ltd., priority 1976, dated 1978)

Experiments:
[1] = Fixing effect: head space gas chromatographic (I) method (HS-GC (I)); assay type: physicochemical; details: 35° C, 60 minutes
Experimental: A model perfume formulation was prepared using eight typical perfumes having different chemical structures, and the fixing effect of a perfume controlling agent was evaluated.
The fixing effect of the perfume controlling agent was determined using a head space gas chromatographic (I) method (to be abbreviated hereinafter as HS-GC (I) method). Specifically, 0.5 g of a perfume containing the perfume controlling agent was placed in an Erlenmeyer flask, and after sealing, the flask was allowed to stand at 35° C for 60 minutes.
Column: 3% polyethylene glycol having a molecular weight of about 20,000 on diatomaceous earth (2m)
Column Temperature: -40° C (5 minutes, isothermal) flushed to 80° C and then to 200° C (4° C/min.)
Injector Temperature: 250° C
Detector Temperature: 250° C
(§1) Detector: Flame Ionization Detector
(§2) Carrier Gas: He (40 ml/min.)

skin of an albino rabbit = experiment: Primary irritation of the skin of an albino rabbit; assay type: in vivo; details: 0.3 ml, intact and abraded area, 24 hours
Experimental: The primary irritation of the skin of an albino rabbit was determined by adhering 0.3 ml of a test agent on a lint cloth patch, applying the cloth to an intact area and an abraded area of the skin of the back of the albino rabbit, and evaluating the skin reactions at these two areas after a lapse of 24 hours. Then, an overall evaluation was made.

[2] = Stabilizing effect on octanal (APHA color); assay type: physicochemical; details: 37° C, 1 month; original APHA 15; 50% controlling agent added or octanal alone
Experimental: Octanal was selected as a single perfume, and the stabilizing effect of the perfume controlling agent was determined.
Amount of Perfume Controlling Agent: 50% based on the octanal (in the case of both DIBA and DIAA)
Test Temperature and Period: 37° C, one month (checked every week)
Items Evaluated: Acid value (AV), carbonyl value (COV), APHA color
In the test, a 100 ml brown bottle boiled in water for 12 hours was used, and the head space of the bottle was purged with nitrogen gas after the octanal had been introduced into the bottle.
Specifically, the color of a solution obtained by diluting 1 ml of a standard original color liquid (octanal) with water exactly to a volume of 100 ml is taken as APHA No. 5, and the APHA color number is increased by a multiple of 5 (as 10, 15, 20 . . . ) for every 1 ml increase of the original liquid.

[3] = Fixing effect: analysis of residue on paper after standing 15 minutes; assay type: physicochemical
Experimental: (§3) Then, the fixing effect was evaluated by a second head space gas chromatographic (II) method (HS-GC (II)). Specifically, a perfume containing 0.7 g of a perfume controlling agent was coated on a sheet of paper having a predetermined thickness, area (11.5 × 7.5 cm), and weight (about 2.9 g). The coated paper was allowed to stand for 15 minutes in an open space in a room (6 × 4 × 2.5 m) maintained at a humidity of 50% at a ventilation rate of 1,500 m^3 /hr. The paper was then transferred into a 1,000 ml Erlenmeyer flask, and the flask was tightly sealed. After a lapse of 15 minutes, the volatilized portion was collected and analyzed by gas chromatography under the conditions shown Table A above. Furthermore, the residue on the paper was extracted with acetone, and analyzed by gas chromatography using conditions shown in Table B below.
Column: 5% FFAP (free fatty acid polyester; a trade name for a product of Nippon Chromato Co., Ltd.) on diatomaceous earth (2m)
Column Temperature: 80° C (5 minutes, isothermal) to 220° C (4° C/min.)
Injector Temperature: 260° C
Detector Temperature: 260° C
as §1, §2
(§4) The composition of the model perfume used was as follows:
The values shown in Table 5 above were obtained by calculating the areas of the perfumes while the area of musk ketone measured by gas chromatography was taken as 1. (This calculating procedure was adopted because musk ketone has a high boiling point, and scarcely volatilizes at 30° C.)

[4] = Acute oral toxicity (LD50)
skin of a guinea pig = experiment: Cumulative irritation on the skin of a guinea pig; assay type: in vivo; details: 0.3 ml three times at 24 hour intervals, intact skin
Experimental: The cumulative irritation on the skin of a guinea pig was evaluated by coating 0.3 ml of a test agent on intact skin of the guinea pig and judging the skin reaction after a lapse of 24 hours, then coating the test agent in an amount of 0.3 ml on the same site twice, each at 24 hour intervals, and judging the reaction of the skin after a lapse of 72 hours (after coating three times).

Pseudomonas aeruginosa = experiment: Microorganism assimilation; details: for OD (turbidity): 660 nm
Experimental: 100 ml of the above liquid medium was placed in a 500 ml Sakaguchi flask, and sterilized at 120° C for 15 minutes in an autoclave in a customary manner. After cooling, the culture medium was inoculated with a prescribed amount of a suspension of the pre-cultured microorganism and cultivated at 30° C with shaking 120 times per minute.
Changes with time in the pH, turbidity, number of living cells were determined.
The turbidity was determined as follows: 2 ml of the culture broth was collected, and the precipitate was separated with a centrifugal separator. The precipitate was washed with acetone, and suspended in 2 ml of distilled water. The turbidity (OD) of the suspension at 660 nm was measured.

[5] = Fixing effect: HS-GC (II), analysis of volatilized portion after standing 15 minutes; assay type: physicochemical; details: for Analysis of Volatilized Portion after Standing 15 Minutes (HS-GC (II) Method): controlling agent 15%, model perfume 5%
Experimental: as §3, §4
Model Perfume: 5% by weight
95% Ethanol: 95% by weight
The composition of the perfume containing a perfume controlling agent was as follows:
Perfume Controlling Agent: 15% by weight
95% Ethanol: 80% by weight

## CC(C)COC(=O)CCCCC(=O)OCC(C)C [DIBA, diisobutyl adipate]
[1]; Benzyl Acetate, content 11.0% (alone 12.5%)
  Head Space Analysis of the Perfume after Adding 50% of DIBA: 12.6%
[1]; Geraniol, content 16.5% (alone 0.9%)
  Head Space Analysis of the Perfume after Adding 50% of DIBA: 0.5%
[1]; Lily Aldehyde, content 27.5% (alone 0.4%)
  Head Space Analysis of the Perfume after Adding 50% of DIBA: 0.2%
[1]; Limonene, content 5.5% (alone 53.4%)
  Head Space Analysis of the Perfume after Adding 50% of DIBA: 57.5%
[1]; Linalool, content 11.0% (alone 15.0%)
  Head Space Analysis of the Perfume after Adding 50% of DIBA: 12.8%
[1]; Linalyl Acetate, content 11.0% (alone 4.1%)
  Head Space Analysis of the Perfume after Adding 50% of DIBA: 0.1%
[1]; Nonanal, content 1.1% (alone […])
  Head Space Analysis of the Perfume after Adding 50% of DIBA: 2.1%
[1]; Rose P, content 16.5% (alone 5.1%)
  Head Space Analysis of the Perfume after Adding 50% of DIBA: 4.4%
Skin of an albino rabbit
  Primary irritation of the skin: did not exhibit irritating effects
[2]
  APHA color of octanal: about 30 APHA
[3]; Citral (not present: 1.5), area of musk ketone taken as 1
  Analysis of Residue on Paper after Standing 15 Minutes (Area Ratio): 2
[3]; Limonene (not present: 0.3), area of musk ketone taken as 1
  Analysis of Residue on Paper after Standing 15 Minutes (Area Ratio): 0.6
[3]; Linalool (not present: 6.4), area of musk ketone taken as 1
  Analysis of Residue on Paper after Standing 15 Minutes (Area Ratio): 9.5
[3]; Linalyl Acetate (not present: 5.1), area of musk ketone taken as 1
  Analysis of Residue on Paper after Standing 15 Minutes (Area Ratio): 8.5
[3]; Musk Ketone (reference, taken as 1; not present: 1.0)
  Analysis of Residue on Paper after Standing 15 Minutes (Area Ratio): 1
[3]; Pinene (not present: 0.0), area of musk ketone taken as 1
  Analysis of Residue on Paper after Standing 15 Minutes (Area Ratio): 0
[4]; acute oral toxicity
  LD50: 12.3 mL/kg
[4]; conclusion from Table 1
  Acute toxicity compared with conventional perfume controlling agents: equal to, or lower than, other conventional perfume controlling agents
Skin of a guinea pig
  Cumulative irritation on the skin: did not exhibit irritating effects
Pseudomonas aeruginosa; 0 days elapsed
  pH: 6.94
Pseudomonas aeruginosa; 2 days elapsed
  Number of Living Cells: 2.3 × 10^7
  pH: 4.72
  OD (turbidity): 0.152
Pseudomonas aeruginosa; 7 days elapsed
  Number of Living Cells: 3 × 10^2
  pH: 4.42
  OD (turbidity): 0.13
Pseudomonas aeruginosa; 14 days elapsed
  Number of Living Cells: < 10^2
  pH: 4.40
  OD (turbidity): 0.115
Pseudomonas aeruginosa; conclusion from Table 8
  Assimilation by microorganism: assimilated very well
[5]; Citral (not present: 3.5%)
  Analysis of Volatilized Portion after Standing 15 Minutes (HS-GC (II) Method): 1.3%
[5]; Limonene (not present: 2.6%)
  Analysis of Volatilized Portion after Standing 15 Minutes (HS-GC (II) Method): 45.9%
[5]; Linalool (not present: 45.2%)
  Analysis of Volatilized Portion after Standing 15 Minutes (HS-GC (II) Method): 29.7%
[5]; Linalyl Acetate (not present: 39.0%)
  Analysis of Volatilized Portion after Standing 15 Minutes (HS-GC (II) Method): 16.4%
[5]; Musk ketone (not present: 0.0%)
  Analysis of Volatilized Portion after Standing 15 Minutes (HS-GC (II) Method): 0.0%
[5]; Pinene (not present: 0.2%)
  Analysis of Volatilized Portion after Standing 15 Minutes (HS-GC (II) Method): 2.4%
[5]; conclusion from Tables 3, 4 and 5
  Volatility and fixing ability: balanced volatility and fixing ability like DEP and BB
